Literature values, collected in paper PMC4207555 (Drug Design, Development and Therapy, 2014).
Where two headings read alike, the source gives them in different places.

Tests used:
microtubules = conditions: read-out: stabilization of microtubules against cold-induced depolymerization (concentration producing 50% cell killing)
[1] = test system: P-glycoprotein-expressing cell lines bearing acquired resistance; conditions: range across P-glycoprotein-expressing cell lines
[2] = test system: cell lines with resistance mechanisms other than P-glycoprotein overexpression
[3] = ref Sanofi, data on file, 2010
[4] = not given; remark: listed apart in the source
[5] = rats, ref Sanofi, data on file, 2010
[6] = dogs, ref Sanofi, data on file, 2010
plasma protein [7] = conditions: mice; ref Sanofi, data on file, 2010
plasma protein [8] = conditions: rats; ref Sanofi, data on file, 2010
plasma protein [9] = conditions: rabbits; ref Sanofi, data on file, 2010
plasma protein [10] = conditions: dogs; ref Sanofi, data on file, 2010
plasma protein [11] = conditions: humans; ref Sanofi, data on file, 2010
[12] = mice
[13] = not given; remark: listed apart in the source
[14] = dogs
[15] = humans
B16/TXT melanoma = conditions: B16/TXT acquired-resistance model, no P-glycoprotein overexpression
Prostate DU 145 = conditions: DU145 xenograft
Breast Calc18/TXT = conditions: P-glycoprotein-overexpressing Calc18/TXT
Breast UISO BCA-1 = conditions: UISO BCA-1, dose level below HNTD (9.3 mg/kg per injection)
HID28 = conditions: for percentage tumor volume change (treated/control mean tumor volume): Day 35
[16] = mice, ref Sanofi, data on file; for NOEL for central neurotoxicity / NOEL for peripheral neurotoxicity: 2010
[17] = rats, ref Sanofi, data on file; for HNLD as single dose: 2013
[18] = dogs; ref Sanofi, data on file, 2013
[19] = in situ brain perfusion, wild-type mice; ref 47 (unpublished data)
[20] = test system: bacterial reverse mutation; conditions: ref Sanofi, data on file, 2010
[21] = ref Sanofi, data on file, 2010; remark: listed apart in the source
bone marrow = conditions: ref Sanofi, data on file, 2010
[22] = male or female rats; ref Sanofi, data on file, 2010
[23] = not given; remark: listed apart in the source
[24] = test system: mCRPC that had progressed on previous docetaxel-based therapy; conditions: for median overall survival / median progression-free survival: plus prednisone/prednisolone
[25] = after IV administration; ref Sanofi, data on file, 2010
[26] = test system: human intracranial glioblastoma xenograft; conditions: two models, respective HNTDs
[27] = test system: pediatric sarcoma xenograft; conditions: five of six models
[28] = not given; remark: listed apart in the source
[29] = single-dose studies in mice, rats, and dogs; ref Sanofi, data on file, 2013
[30] = Phase III clinical studies in a number of tumor types
[31] = 0–48 hours, mice bearing subcutaneous MA16/C

## CO[C@H]1C(=O)[C@]2(C)[C@@H](OC)C[C@H]3OC[C@@]3(OC(C)=O)[C@H]2[C@H](OC(=O)c2ccccc2)[C@]2(O)C[C@H](OC(=O)[C@H](O)[C@@H](NC(=O)OC(C)(C)C)c3ccccc3)C(C)=C1C2(C)C [Cabazitaxel]
tubulin
  lag time to 50% aggregation (reduction in lag time for tubulin assembly): 0 to 0.1 µmol/L
microtubules
  IC50: 100 to 250 nM
[1]
  Resistance factors: 2–10
[2]
  cross-resistance: no cross-resistance
other
  logP: 3.9
[3]; healthy mice, single IV administration
  volume of distribution at steady state: 2.5 to 3.7 L/kg
[3]; normal mice, single IV infusion
  Plasma clearance: 15 to 18.3 mL/min/kg
[3]; normal mice
  terminal half-life: 5.1 to 7.6 h
[4]; [31]
  overall brain exposure relative to plasma: 3.7 fold
  overall brain exposure relative to tumor tissue: 2.3 fold
[4]; MA16/C-bearing mice, 40 mg/kg
  time to maximum drug concentrations in tumor tissue: ≤ 15 min
[4]; after 48 hours, MA16/C-bearing mice, 40 mg/kg
  concentration within the tumor versus plasma: 40 fold
[4]; during the 48 hours following administration, 40 mg/kg
  exposure in tumor compared with plasma: 1.6 times
[4]; entire experimental period (168 hours), 40 mg/kg
  exposure in tumor compared with plasma: 2.9 times
[4]; tumor-bearing mice, single IV administration, ref Sanofi, data on file, 2010
  volume of distribution at steady state: 8.8 L/kg
[4]; tumor-bearing mice, single IV infusion, ref Sanofi, data on file, 2010
  Plasma clearance: 28.3 mL/min/kg
[4]; tumor-bearing mice, ref Sanofi, data on file, 2010
  terminal half-life: 26 h
[5]; single IV administration
  volume of distribution at steady state: 22.7 L/kg
[5]; single IV infusion
  Plasma clearance: 80 mL/min/kg
[5]
  terminal half-life: 10 h
[6]; single IV administration
  volume of distribution at steady state: 3.3 to 14.5 L/kg
[6]; single IV infusion
  Plasma clearance: 41.7 to 88.3 mL/min/kg
[6]
  terminal half-life: 3.0 to 4.3 h
Plasma protein [7]
  Plasma protein binding: 99.3%
Plasma protein [8]
  Plasma protein binding: 95.5%
Plasma protein [9]
  Plasma protein binding: 91.4%
Plasma protein [10]
  Plasma protein binding: 97.1%
Plasma protein [11]
  Plasma protein binding: 91.9%
[12]
  pathway C (t-butyl-hydroxylation on the lateral chain), share of the dose: 41%
  two O-demethylation pathways (A and B), share of the dose excreted: 45%
[13]; bile-duct-cannulated male rats, within 48 hours
  radioactivity excreted via the biliary route, % of the administered dose: 65%
[13]; male and female rats
  pathway C (t-butyl-hydroxylation on the lateral chain), share of the dose excreted: 49%–55
[14]
  two O-demethylation pathways (A and B), share of the dose excreted: 54%
[15]
  pathway C (t-butyl-hydroxylation on the lateral chain), share of the dose: 21%
  two O-demethylation pathways (A and B), share of the dose excreted: 40%
B16/TXT melanoma
  antitumor activity: demonstrated antitumor activity
Prostate DU 145
  complete tumor regressions (CR): 100%
  long-term tumor-free survival (TFS): 83%
Breast Calc18/TXT
  antitumor activity: not active
Breast UISO BCA-1
  log cell kill: 4.4
HID28; HID28, 20 mg/kg
  partial remissions: four out of ten
  percentage tumor volume change (treated/control mean tumor volume): 1.4%
[16]; 5-day, 1 min infusion
  NOEL for central neurotoxicity: >7 mg/kg/day
  NOEL for peripheral neurotoxicity: 3 mg/kg/day
[16]; five-cycle, 1 hr infusion
  NOEL for central neurotoxicity: 10 mg/kg/day
  NOEL for peripheral neurotoxicity: 5 mg/kg/day
[16]; single-dose, 1 min infusion
  NOEL for central neurotoxicity: 10 mg/kg/day
  NOEL for peripheral neurotoxicity: 10 mg/kg/day
[16]; single-dose, 1 hr infusion
  NOEL for central neurotoxicity: 10 mg/kg/day
[16]; weekly, 1 min infusion
  NOEL for central neurotoxicity: 5 mg/kg/day
  NOEL for peripheral neurotoxicity: 5 mg/kg/day
[16]; 2013
  HNLD as single dose: 30 mg/kg
[17]; single-dose, 1 min infusion, 2010
  NOEL for central neurotoxicity: >10 mg/kg/day
[17]; ten-cycle, 1 hr infusion, 2010
  NOEL for central neurotoxicity: >10/20
  NOEL for peripheral neurotoxicity: <1 mg/kg/day
[17]
  HNLD as single dose: 2.5 mg/kg
[18]
  HNLD as single dose: 0.5 mg/kg
P-glycoprotein
  uptake across the BBB, P-glycoprotein-deficient versus control mice: threefold higher
[19]
  brain penetration versus paclitaxel or docetaxel: two- to threefold greater
[20]
  mutations in the bacterial reverse mutation (Ames) test: did not induce mutations
[21]
  in vitro chromosome aberration test: increased number of polyploid cells
Bone marrow
  in vivo rat bone marrow micronucleus test: increase in micronuclei
[22]
  mating performance or fertility: did not affect
[23]; 170 patients
  population half-life, initial phase: 4.4 min
  population half-life, intermediate phase: 1.6 h
  population half-life, terminal phase: 95.1 h
[23]; median BSA 1.84 m^2
  mean volume of distribution at steady state (population PK estimate): 2,640 L/m^2
  plasma clearance (population PK estimate): 26.4 L/h/m^2
[24]
  grade ≥3 anemia, patients: 11%
  grade ≥3 diarrhea: 6%
  grade ≥3 leukopenia, patients: 68%
  grade ≥3 neutropenia, patients: 82%
  patients who died within 30 days of the last infusion: 5%
  patients with dose reduction: 12%
  patients with treatment delay: 28%
  peripheral neuropathy, patients: 14%
  prostate-specific antigen response: 39.2%
  rate of objective tumor response: 14.4%
  median overall survival: 15.1 months
  median progression-free survival: 2.8 months
[24]; three patients
  grade 3 peripheral neuropathy, patients: 1%
[24]; versus mitoxantrone
  hazard ratio, death: 0.70
  hazard ratio, progression-free survival: 0.74
  reduction in the risk of death: 30%
[25]
  effects in CNS, respiratory, gastrointestinal, renal, and cardiovascular systems: no physiologically relevant effects
[26]
  antitumor activity (increase in life span) versus docetaxel: enhanced antitumor activity compared with docetaxel
[27]
  tumor growth inhibition and tumor regression versus equivalent doses of docetaxel: significantly greater tumor growth inhibition and tumor regression
[28]; all species including humans
  pathway D (cleavage of the parent drug), share of the dose: < 0.3%
[28]; mice, rats, and dogs
  excretion via the urinary route: 1%–4
  excretion, % of the administered dose: 91%–95
  radioactivity excreted in the feces, % of the administered dose: 87%–91
[28]; mice, rats, dogs, and humans
  administered dose excreted unchanged: less than 2.5%
[29]
  highest non-lethal doses, times lower with cabazitaxel than with docetaxel: 3- to 4 times

## CC(=O)O[C@@]12CO[C@@H]1C[C@H](O)[C@@]1(C)C(=O)[C@H](O)C3=C(C)[C@@H](OC(=O)[C@H](O)[C@@H](NC(=O)OC(C)(C)C)c4ccccc4)C[C@@](O)([C@@H](OC(=O)c4ccccc4)[C@H]21)C3(C)C [Docetaxel, reference compound]
tubulin
  lag time to 50% aggregation (reduction in lag time for tubulin assembly): 0 to 0.1 µmol/L
microtubules
  IC50: 100 to 250 nM
[1]
  Resistance factors: 5–59
other
  logP: 3.2
[15]; over 7 days
  administered dose of 14C excreted in the feces: 80%
  administered dose of 14C recovered in the urine: approximately 5%
HID28; HID28, 20 mg/kg
  percentage tumor volume change (treated/control mean tumor volume): 16.7%
[17]
  HNLD as single dose: 10 mg/kg
[30]
  incidence of grade 3/4 sensory neuropathy: 0%–7

## CC(=O)O[C@H]1CC[C@@]2(C)C(=CC[C@@H]3[C@@H]2CC[C@]2(C)C(c4cccnc4)=CC[C@@H]32)C1 [abiraterone acetate, reference compound]
HID28; HID28, 50 mg/kg orally daily for 21 days
  antitumor activity: No antitumor activity

## O=C1c2c(O)ccc(O)c2C(=O)c2c(NCCNCCO)ccc(NCCNCCO)c21 [mitoxantrone, reference compound]
[24]
  prostate-specific antigen response: 17.8%
  rate of objective tumor response: 4.4%
  median overall survival: 12.7 months
  median progression-free survival: 1.4 months
